Test results published in PubChem BioAssay AID2060499 (Molecular Pharmacology Branch, DTP, NCI, 2025).

Test system: 777334-354-R2-J4-PDC tumor spheroids with HUVEC/MSC, viability
Experiment: Anticancer human tumor 777334-354-R2-J4-PDC patient-derived pancreatic adenocarcinoma cell line growth inhibition [GQUAD]
Details: for IC50: curve of first compound; for viability, T/C: stronger effect = lower value; active = viability on the fitted dose curve at most 10% of control; inactive = the rest
Method in brief: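 Tumor cells were grown as complex spheroids with HUVEC endothelial cells and mesenchymal stem cells as stroma. G-quadruplex stabilizers were combined with targeted agents over half-log dilutions from near the clinical Cmax, or from 10 microM.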

[1] = second compound 0.0316 µM, first compound 0.0316 µM
[2] = second compound 0.0316 µM, first compound 0.316 µM
[3] = second compound 0.1 µM, first compound 0.0316 µM
[4] = second compound 0.1 µM, first compound 0.316 µM
[5] = second compound 0.316 µM, first compound 0.0316 µM
[6] = second compound 0.316 µM, first compound 0.316 µM
[7] = second compound 1 µM, first compound 0.0316 µM
[8] = second compound 1 µM, first compound 0.316 µM
[9] = second compound 3.16 µM, first compound 0.0316 µM
[10] = second compound 3.16 µM, first compound 0.316 µM
[11] = second compound 10 µM, first compound 0.0316 µM
[12] = second compound 10 µM, first compound 0.316 µM
[13] = second compound 0.0316 µM, first compound 0.1 µM
[14] = second compound 0.0316 µM, first compound 1 µM
[15] = second compound 0.0316 µM, first compound 3.16 µM
[16] = second compound 0.0316 µM, first compound 10 µM
[17] = second compound 0.1 µM, first compound 0.1 µM
[18] = second compound 0.1 µM, first compound 1 µM
[19] = second compound 0.1 µM, first compound 3.16 µM
[20] = second compound 0.1 µM, first compound 10 µM
[21] = second compound 0.316 µM, first compound 0.1 µM
[22] = second compound 0.316 µM, first compound 1 µM
[23] = second compound 0.316 µM, first compound 3.16 µM
[24] = second compound 0.316 µM, first compound 10 µM
[25] = second compound 1 µM, first compound 0.1 µM
[26] = second compound 1 µM, first compound 1 µM
[27] = second compound 1 µM, first compound 3.16 µM
[28] = second compound 1 µM, first compound 10 µM
[29] = second compound 3.16 µM, first compound 0.1 µM
[30] = second compound 3.16 µM, first compound 1 µM
[31] = second compound 3.16 µM, first compound 3.16 µM
[32] = second compound 3.16 µM, first compound 10 µM
[33] = second compound 10 µM, first compound 0.1 µM
[34] = second compound 10 µM, first compound 1 µM
[35] = second compound 10 µM, first compound 3.16 µM
[36] = second compound 10 µM, first compound 10 µM
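Also: spheroids exposed to compounds for 7 days before readout.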

CCc1c2c(nc3ccc(O)cc13)-c1cc3c(c(=O)n1C2)COC(=O)[C@]3(O)CC + Cc1cnc(CNC(=O)c2c(=O)c3ccc(N4CCCN(C)CC4)nc3n3c2sc2ccccc23)cn1
0.00386 µM: IC50 (second compound 0.316 µM)
0.00438 µM: IC50 (second compound 0.0316 µM)
0.00462 µM: IC50 (second compound 1 µM)
0.00184 µM: IC50 (second compound 10 µM)
inactive: viability, T/C (second compound 0.0316 µM, first compound 0.000999 µM) 84.8% | viability, T/C (second compound 0.0316 µM, first compound 0.00316 µM) 49.6% | viability, T/C (second compound 0.0316 µM, first compound 0.00999 µM) 39.5% | viability, T/C [1] 25.7% | viability, T/C (second compound 0.0316 µM, first compound 0.0999 µM) 13.8% | viability, T/C (second compound 0.1 µM, first compound 0.000999 µM) 84.4% | viability, T/C (second compound 0.1 µM, first compound 0.00316 µM) 54.1% | viability, T/C (second compound 0.1 µM, first compound 0.00999 µM) 38.1% | viability, T/C [3] 23.2% | viability, T/C (second compound 0.1 µM, first compound 0.0999 µM) 17.4% | viability, T/C [4] 10.6% | viability, T/C (second compound 0.316 µM, first compound 0.000999 µM) 63.6% | viability, T/C (second compound 0.316 µM, first compound 0.00316 µM) 54.1% | viability, T/C (second compound 0.316 µM, first compound 0.00999 µM) 37.1% | viability, T/C [5] 29% | viability, T/C (second compound 0.316 µM, first compound 0.0999 µM) 19.1% | viability, T/C [6] 10.3% | viability, T/C (second compound 1 µM, first compound 0.000999 µM) 56% | viability, T/C (second compound 1 µM, first compound 0.00316 µM) 56.8% | viability, T/C (second compound 1 µM, first compound 0.00999 µM) 40.6% | viability, T/C [7] 32.1% | viability, T/C (second compound 1 µM, first compound 0.0999 µM) 16.7% | viability, T/C (second compound 3.16 µM, first compound 0.000999 µM) 49.5% | viability, T/C (second compound 3.16 µM, first compound 0.00316 µM) 49.4% | viability, T/C (second compound 3.16 µM, first compound 0.00999 µM) 40.1% | viability, T/C [9] 28.4% | viability, T/C (second compound 3.16 µM, first compound 0.0999 µM) 13.8% | viability, T/C (second compound 10 µM, first compound 0.000999 µM) 57.5% | viability, T/C (second compound 10 µM, first compound 0.00316 µM) 40.6% | viability, T/C (second compound 10 µM, first compound 0.00999 µM) 33.6% | viability, T/C [11] 27.9%
active: viability, T/C [2] 7.76% | viability, T/C [8] 7.38% | viability, T/C [10] 4.92% | viability, T/C (second compound 10 µM, first compound 0.0999 µM) 0.34% | viability, T/C [12] 0.24%
0.00444 µM: IC50 (second compound 0.1 µM)
0.0012 µM: IC50 (second compound 3.16 µM)

Cc1cccc(N(C)C(=O)C2C(O)CCN2c2nc(C)cc(C(F)(F)F)c2C#N)c1 (stereo unspecified) + Cc1cnc(CNC(=O)c2c(=O)c3ccc(N4CCCN(C)CC4)nc3n3c2sc2ccccc23)cn1
inactive: viability, T/C [1] 103% | viability, T/C [13] 91.3% | viability, T/C [2] 107% | viability, T/C [14] 94.5% | viability, T/C [15] 105% | viability, T/C [16] 100% | viability, T/C [3] 108% | viability, T/C [17] 92.2% | viability, T/C [4] 93.6% | viability, T/C [18] 83.5% | viability, T/C [19] 95% | viability, T/C [20] 85% | viability, T/C [5] 82.6% | viability, T/C [21] 84.9% | viability, T/C [6] 78.1% | viability, T/C [22] 84.8% | viability, T/C [23] 80.7% | viability, T/C [24] 91.7% | viability, T/C [7] 65.3% | viability, T/C [25] 73% | viability, T/C [8] 79.5% | viability, T/C [26] 75.8% | viability, T/C [27] 71.2% | viability, T/C [28] 65.5% | viability, T/C [9] 59.3% | viability, T/C [29] 67% | viability, T/C [10] 58.4% | viability, T/C [30] 62.3% | viability, T/C [31] 67.2% | viability, T/C [32] 60.6% | viability, T/C [11] 63% | viability, T/C [33] 63.2% | viability, T/C [12] 59.6% | viability, T/C [34] 64.5% | viability, T/C [35] 64.5% | viability, T/C [36] 62.7%
> 10 µM: IC50 (second compound 0.0316 µM) | IC50 (second compound 0.1 µM) | IC50 (second compound 0.316 µM) | IC50 (second compound 1 µM) | IC50 (second compound 3.16 µM) | IC50 (second compound 10 µM)

O=C(c1cc(Cc2n[nH]c(=O)c3ccccc23)ccc1F)N1CCN(C(=O)C2CC2)CC1 + Cc1cnc(CNC(=O)c2c(=O)c3ccc(N4CCCN(C)CC4)nc3n3c2sc2ccccc23)cn1
inactive: viability, T/C [1] 85.9% | viability, T/C [13] 94.2% | viability, T/C [2] 96.6% | viability, T/C [14] 92% | viability, T/C [15] 90.6% | viability, T/C [16] 75.7% | viability, T/C [3] 88.9% | viability, T/C [17] 88.2% | viability, T/C [4] 91.8% | viability, T/C [18] 88% | viability, T/C [19] 76.7% | viability, T/C [20] 70.3% | viability, T/C [5] 79.9% | viability, T/C [21] 76.5% | viability, T/C [6] 69.7% | viability, T/C [22] 75.1% | viability, T/C [23] 74.3% | viability, T/C [24] 64.9% | viability, T/C [7] 73.8% | viability, T/C [25] 75.6% | viability, T/C [8] 76.2% | viability, T/C [26] 68.8% | viability, T/C [27] 69.5% | viability, T/C [28] 60.4% | viability, T/C [9] 56.5% | viability, T/C [29] 55.9% | viability, T/C [10] 63% | viability, T/C [30] 64.2% | viability, T/C [31] 64.9% | viability, T/C [32] 56.2% | viability, T/C [11] 61.5% | viability, T/C [33] 54.2% | viability, T/C [12] 51.9% | viability, T/C [34] 55.8% | viability, T/C [35] 61.9% | viability, T/C [36] 47.7%
> 10 µM: IC50 (second compound 0.0316 µM) | IC50 (second compound 0.1 µM) | IC50 (second compound 0.316 µM) | IC50 (second compound 1 µM) | IC50 (second compound 3.16 µM) | IC50 (second compound 10 µM)
